# From US8772318B2, “Methods and compositions related to targeting monoacylglycerol lipase” (The Scripps Research Institute, priority 2008, dated 2014)
# “Also recorded” adds a separate entry of the source.
# What was measured:
# [1] = test system: human cancer cell lines (C8161, SKOV3, 231MFP, MUM2C, OVCAR3); experiment: Cell migration assay (Transwell); type: cell-based; conditions: for migration of MUM2C and OVCAR3 cells / migratory activity of shMAGL or JZL184-treated MAGL-OE cancer cells: 20 μM; for impaired migration of shMAGL cancer cells: 100 nM; for migration of cancer cells: 100 μM, 4 hr preincubation and coincubation with migration
# Method: Cell migration, cell survival, and invasion studies. Migration assays were performed in Transwell chambers (Corning) with 8 μm pore-sized membranes coated with 10 μg/ml collagen for 4 h at 37° C. A total of 24 hr before the start of the migration assay, cancer cell lines were plated at a concentration of 1×10^6 cells per 6 cm dish. At the start of the migration assay, cells were harvested by washing two times with PBS and were then serum starved in serum-free media for 4 hr. Inhibitor, lipid or vehicle (0.1% DMSO) were preincubated with the cells during this 4 h time. Serum-starved cells were trypsinized, spun at 1400×g for 3 min, resuspended, and counted. 50,000 cells were seeded in the upper chamber of the transwells in 200 μl serum-free media (containing inhibitor, lipid or vehicle). Inhibitor, lipid or vehicle was also added to the lower chamber, and cells were allowed to migrate for 5 h (for C8161 and 231MFP cells) or 20 hr (SKOV3, MUM2C and OVCAR3 cells). The filters were then fixed and stained with Diff-Quik (Dade Behring). Cells that had not migrated through the chamber were removed with a cotton ball. The cells that migrated were counted at a magnification of 400×, and 4 fields were independently counted from each migration chamber. An average of cells in 4 fields for one migration chamber represents n=1.
# [2] = test system: human cancer cell lines (C8161, SKOV3, 231MFP, MUM2C, OVCAR3); experiment: Lipid measurements in cancer cells; type: cell-based
# Method: Pharmacological inhibition of MAGL in cancer cells. Pharmacological inhibition studies were conducted as described previously (Chiang et al., Chem. Biol. 13:1041-1050, 2006). Cancer cells were maintained in RPMI medium 1640 with 10% (v/v) fetal calf serum at 37° C. in a humidified atmosphere of 5% CO2/95% air. At 80% confluency, cells were trypsinized and counted using a hemocytometer, and 1×10^6 cells were plated in 6 cm dishes (subconfluent). […] After incubation for 4 hr, the cells were harvested and analyzed by ABPP or LC-MS.
# Lipid measurements in cancer cells. Lipid measurements were conducted similarly to protocols described previously (Chiang et al., 2006; supra). Cancer cells were grown in serum-free media for 4 hrs to minimize the contribution of serum-derived lipids to the cellular profiles. The cells (1×10^6 cells/6 cm dish, 80% confluency) were washed with twice with phosphate buffer saline (PBS), isolated by centrifugation at 1,400×g, and dounce-homogenized in 4 ml of a 2:1:1 mixture of chloroform:methanol:Tris buffer. Samples were homogenized in the presence of the following synthetic standards: C12:0 MAGE (10 nmol), C15:0 FFA (10 nmol). Organic and aqueous layers were separated by centrifugation at 2000×g for 5 min and the organic layer was collected. The aqueous layer was acidified (for metabolites such as LPA) by adding 5% formic acid, followed by the addition of 2 ml chloroform. The mixture was vortexed, and the organic layers were combined, dried down under N2 and dissolved in 100 μl chloroform, of which 30 μl was analyzed by LC-MS.
# LC-MS analysis was performed by using an Agilent 1100 LC-MSD SL instrument. […] Mobile phase A was composed of a 95:5 ratio of water:methanol, and mobile phase B consisted of 2-propanol, methanol, and water in a 60:35:5 ratio. Solvent modifiers such as 0.1% formic acid and 0.1% ammonium hydroxide were used to assist ion formation as well as to improve the LC resolution in both positive and negative ionization modes, respectively. The flow rate for each run started at 0.1 ml/min for 5 min, to alleviate backpressure associated with injecting chloroform. The gradient started at 0% B and increased linearly to 100% B over the course of 45 min with a flow rate of 0.4 ml/min, followed by an isocratic gradient of 100% B for 17 min at 0.5 ml/min before equilibrating for 8 min at 0% B with a flow rate of 0.5 ml/min. MS analysis was performed with an electrospray ionization (ESI) source. The capillary voltage was set to 3.0 kV, and the fragmentor voltage was set to 100 V. The drying gas temperature was 350° C., the drying gas flow rate was 10 L/min, and the nebulizer pressure was 35 psi.
# Lipidomic analysis was performed in both targeted and untargeted mode by LC-MS analysis. Standard lipid classes were quantitated by targeting using selected ion monitoring (SIM) (except for very high-abundance metabolites which were quantitated by untargeted analysis) and identities of metabolites were confirmed by coelution of metabolites with their respective standards and mass accuracy to within 10 ppm as determined with an accurate mass Agilent 6520 Accurate Mass QTOF-MS-MS. These lipids were quantified by measuring the area under the peak and were normalized to an internal standard (C12:0 MAGE in positive mode or C15:0 FFA in negative mode). […]
# MAGL [3] = molecular target: T1, MAGL (Homo sapiens, UniProt Q99685); experiment: shRNA knockdown of MAGL, activity by ABPP and C20:4 MAG hydrolysis; type: cell-based; conditions: aggressive cancer lines, ABPP
# T1 construct: endogenous in cells; host or cells: human cancer lines (C8161, MUM2B, MUM2C, SKOV3, OVCAR3, 231MFP, MCF7)
# T1 sequence (Q99685 1-303): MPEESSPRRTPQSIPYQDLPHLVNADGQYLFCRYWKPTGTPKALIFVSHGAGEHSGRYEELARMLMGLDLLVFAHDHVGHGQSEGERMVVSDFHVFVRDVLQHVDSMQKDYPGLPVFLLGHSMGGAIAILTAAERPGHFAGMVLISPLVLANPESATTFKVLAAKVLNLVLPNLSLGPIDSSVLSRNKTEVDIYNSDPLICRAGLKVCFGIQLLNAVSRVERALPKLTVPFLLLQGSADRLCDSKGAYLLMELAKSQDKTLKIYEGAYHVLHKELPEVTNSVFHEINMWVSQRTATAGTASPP
# Method: ABPP and hydrolytic activity assays of cancer cell proteomes. Identification and comparative quantitation of serine hydrolase activities from cancer cell proteomes by ABPP-MudPIT or gel-based ABPP was conducted as previously described using FP-biotin (5 μM) and FP-rhodamine (2 μM), respectively (Jessani et al., Proc. Natl. Acad. Sci. U.S.A 99:10335-10340, 2002; and Jessani et al., Nat. Methods 2:691-697, 2005). C20:4 MAG hydrolytic activity assays were performed as described previously (Blankman et al., Chem. Biol. 14:1347-1356, 2007). For ABPP experiments, cell lysate proteomes were treated with 2 μM FP-rhodamine for 30 min at room temperature (50 μl total reaction volume). Reactions were quenched with one volume of standard 4×SDS/PAGE loading buffer (reducing), separated by SDS/PAGE (10% acrylamide), and visualized in-gel with a Hitachi FMBio IIe flatbed fluorescence scanner (MiraiBio). Integrated band intensities were calculated for the labeled proteins and averaged from three independent cell samples to determine the level of each enzyme activity. IC50 values were determined from dose-response curves from three trials at each inhibitor concentration by using SigmaPlot 10.0. MAGL expression was also assessed by western blotting using standard procedures.
# RNA interference studies in human cancer cell lines. […]
# MAGL [4] = molecular target: T2, MAGL (Mus musculus, UniProt O35678); experiment: Competitive ABPP, mouse brain membrane proteome; type: biochemical
# T2 construct: from tissue; host or cells: mouse brain membrane fraction (C57Bl/6 mice for the in vivo studies)
# T2 sequence (O35678 1-303): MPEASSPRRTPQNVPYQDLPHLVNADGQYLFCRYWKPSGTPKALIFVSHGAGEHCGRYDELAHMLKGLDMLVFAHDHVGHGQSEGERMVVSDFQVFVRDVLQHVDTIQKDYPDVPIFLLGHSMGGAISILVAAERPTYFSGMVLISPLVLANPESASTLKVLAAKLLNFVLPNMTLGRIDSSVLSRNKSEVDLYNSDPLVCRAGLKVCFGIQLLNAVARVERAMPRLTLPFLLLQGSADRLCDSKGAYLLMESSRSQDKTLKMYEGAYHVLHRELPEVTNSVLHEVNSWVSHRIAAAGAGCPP
# Excerpt: First, serine hydrolases are susceptible to covalent inactivation by specific chemical groups that show little or no cross-reactivity with other enzyme classes. […] Second, the functional state of serine hydrolases can be collectively profiled in native biological systems using activity-based protein profiling (ABPP) methods (Cravat et al., Annu Rev Biochem 77:383-414, 2008). ABPP of serine hydrolases uses reporter-tagged fluorophosphonates (FPs), which serve as general activity-based probes for this large and diverse enzyme class (Liu et al., Proc. Natl. Acad. Sci. U.S.A. 96:14694-9, 1999). When performed in a competitive mode, ABPP can serve as a powerful screen to evaluate the potency and selectivity of small-molecule enzyme inhibitors directly in complex proteomes. The screen can be performed as described in the art, e.g., Liu et al., Proc. Natl. Acad. Sci. U.S.A. 96:14694-9, 1999; Li et al., J. Am. Chem. Soc. 129:9594-5, 2007; Leung et al., Nat. Biotech. 21:687-91, 2003; and Greenbaum et al., Mol. Cell. Proteomics 1:60-68, 2002.
# Competitive activity-based protein profiling (ABPP) experiments. In vitro inhibitor selectivity was examined using a competitive ABPP method as described in the art (e.g., Li et al., J. Am. Chem. Soc. 129:9594-5, 2007; and Leung et al., Nat. Biotech. 21:687-91, 2003). Briefly, mouse brain membrane proteomes, prepared as described herein, were diluted to 1 mg/ml in PBS and pre-incubated with varying concentrations of inhibitors (1 nM to 10 μM) for 30 min at 37° C. prior to the addition of a FP-rhodamine at a final concentration of 2 μM in a 50 μl of total reaction volume. After 30 min at room temperature, the reactions were quenched with 4×SDS-PAGE loading buffer, boiled for 5 min at 90° C., subjected to SDS-PAGE, and visualized in-gel using a flatbed fluorescence scanner.
# Every 10 min, 50 ul of the reaction was removed and treated with FP-rhodamine (2 μM) for 2 min, quenched with 4×SDS-PAGE loading buffer, and boiled for 5 min at 90° C. The combined reactions were subjected to SDS-PAGE and visualized in-gel using a flatbed fluorescence scanner. The percentage activity remaining was determined by measuring the integrated optical density corresponding to the MAGL or FAAH bands and the results were fit to an exponential curve to determine the pseudo-first order rate constants.
# [5] = aggressive melanoma, ovarian, breast cancer cells
molecule,measurement,setting,value
CCCCCCCCCCCCCCCCCC(=O)O [stearic acid],migration of MUM2C and OVCAR3 cells,[1]; 4 h,increases the migration
same,migratory activity of shMAGL or JZL184-treated MAGL-OE cancer cells,[1]; 4 h,fully restored their migratory activity
"shMAGL2: short hairpin RNA oligonucleotide for MAGL, 5′-AGACTACCCTGGGCTTCCT-3′ (SEQ ID NO:2) (expressed or natural sequence)",FFA levels in shMAGL cells,[2]; [5],corresponding reductions
same,MAG levels in shMAGL cells,[2]; [5],significant elevations
same,other serine hydrolase activities,MAGL [3],unaffected
CCCCCCCCCCCCCCCC(=O)OC[C@@H](O)COP(=O)(O)O [LPA],impaired migration of shMAGL cancer cells,[1]; 4 hr,rescued the impaired migration
CCCCCCCCCCCCCCCC(=O)O [palmitic acid],migration of MUM2C and OVCAR3 cells,[1]; 4 h,increases the migration
same,migratory activity of shMAGL or JZL184-treated MAGL-OE cancer cells,[1]; 4 h,fully restored their migratory activity
CCOC(=O)[C@@]1(CCCCCCOc2ccc(Cl)cc2)CO1 [etomoxir],migration of cancer cells,[1],did not affect migration
same,FFA levels in cancer cells,"[2]; 100 μM, 4 hr, exception C20:4 FFA, elevated in C8161 and SKOV3 cells",did not alter FFA levels
COc1ccc(C(=O)c2c(C)n(CCN3CCOCC3)c3cc(I)ccc23)cc1 [AM630],migratory defect in shMAGL cancer cells,"[1]; antagonist 1 μM, 4 hr",not rescued
same,FFA levels in shControl and shMAGL cancer cells,"[2]; antagonist 1 μM, 4 hr",unchanged
COc1ccc(C(O)(c2ccc(OC)cc2)C2CCN(C(=O)Oc3ccc([N+](=O)[O-])cc3)CC2)cc1 [JZL175],selectivity for MAGL over FAAH and ABHD6 (competitive ABPP),MAGL [4],selectivity for MAGL over both FAAH and ABHD6; also recorded: no or greatly reduced inhibitory activity on FAAH as well as ABHD6
pertussis toxin,enhanced migratory activity of MAGL-OE cancer cells,"[1]; 100 ng/ml, 4 h",completely blocked
COc1ccc(CN2CCNCC2)c(OC)c1OC [trimetazidine],migration of cancer cells,[1],did not affect migration
"CCCCC[C@H](O)/C=C/[C@H]1[C@H](O)CC(=O)[C@@H]1C/C=C\CCCC(=O)O [PGE2, prostaglandin E2]",impaired migration of shMAGL cancer cells,[1]; 4 hr,rescued the impaired migration
